Several values for one entry are separate records, joined by “and”; a condition that tells them apart may be missing. Equal values may be shown once.
How the values were obtained:
JAK2 = biological target: T1, JAK2 (Homo sapiens, UniProt O60674); assay: JAK2 Ulight-JAK1 peptide assay; format: biochemical
T1 construct: Recombinant human JAK2 catalytic domain (amino acids 808-1132; catalog number PV4210) was purchased from Invitrogen; purchased Invitrogen PV4210
Protocol: Recombinant human JAK2 (catalytic domain, amino acids […]; catalog number PV4210) was purchased from Invitrogen. 0.0125 mU of JAK2 was incubated with 25 nM Ulight-JAK1(tyr1023) peptide (Perkin Elmer catalog number TRF0121) in kinase reaction buffer (25 mM HEPES pH7.0, 0.01% Triton X-100, 7.5 mM MgCl2, 2 mM DTT, 7.5 μM ATP) with or without 4 μL containing test compound or vehicle (DMSO, 1% final concentration), in a total volume of 20 μL, in a white 384 Opti plate (Perkin Elmer, catalog number 6007290). After 60 min at rt, reactions were stopped by adding 20 μL/well of detection mixture (1× detection buffer (Perkin Elmer, catalog number CR97-100C), 0.5 nM Europium-anti-phosphotyrosine (PT66) (Perkin Elmer, catalog number AD0068), 10 mM EDTA). Readout is performed using the Envision with excitation at 320 nm and measuring emission at 615 nm (Perkin Elmer). Kinase activity was calculated by subtracting relative fluorescence units (RFU) obtained in the presence of a positive control inhibitor (10 μM staurosporine) from RFU obtained in the presence of vehicle. The ability of a test compound to inhibit this activity was determined as:
Percentage inhibition=((RFU determined for sample with test compound present−RFU determined for sample with positive control inhibitor) divided by (RFU determined in the presence of vehicle−RFU determined for sample with positive control inhibitor))*100. […]

[1] = biological target: T2, Recombinant human TYK2 catalytic domain (Homo sapiens, UniProt P29597); assay: TYK2 inhibition assay (polyGT substrate); format: biochemical
T2 construct: Recombinant human TYK2 catalytic domain (amino acids 871-1187; catalog number 08-147) was purchased from Carna biosciences; purchased Carna Biosciences 08-147
T2 sequence (P29597 871-1187): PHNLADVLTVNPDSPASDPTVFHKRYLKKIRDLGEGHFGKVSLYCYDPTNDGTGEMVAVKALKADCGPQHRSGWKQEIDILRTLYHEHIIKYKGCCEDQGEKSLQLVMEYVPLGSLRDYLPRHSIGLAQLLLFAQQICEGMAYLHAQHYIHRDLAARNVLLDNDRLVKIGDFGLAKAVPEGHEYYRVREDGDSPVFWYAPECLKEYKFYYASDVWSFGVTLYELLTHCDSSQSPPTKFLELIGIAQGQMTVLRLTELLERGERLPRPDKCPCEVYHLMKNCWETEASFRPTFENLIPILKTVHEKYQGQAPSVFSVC
Protocol: Recombinant human TYK2 catalytic domain (amino acids 871-1187; catalog number 08-147) was purchased from Carna biosciences. 5 ng of TYK2 was incubated with 12.5 μg polyGT substrate (Sigma catalog number P0275) in kinase reaction buffer (25 mM Hepes pH 7.2, 50 mM NaCl, 0.5 mM EDTA, 1 mM DTT, 5 mM MnCl2, 10 mM MgCl2, 0.1% Brij-35, 0.1 μM non-radioactive ATP, 0.125 μCi ^33P-gamma-ATP (GE Healthcare, catalog number AH9968) final concentrations) with or without 5 μL containing test compound or vehicle (DMSO, 1% final concentration), in a total volume of 25 μL, in a polypropylene 96-well plate (Greiner, V-bottom). After 90 min at 30° C., reactions were stopped by adding 25 μL/well of 150 mM phosphoric acid. […] 40 ^μL/well of Microscint-20 was added, the top of the plates was sealed and readout was performed using the Topcount (Perkin Elmer). Kinase activity was calculated by subtracting counts per min (cpm) obtained in the presence of a positive control inhibitor (10 μM staurosporine) from cpm obtained in the presence of vehicle. The ability of a test compound to inhibit this activity was determined as:
Percentage inhibition=((cpm determined for sample with test compound present−cpm determined for sample with positive control inhibitor) divided by (cpm determined in the presence of vehicle−cpm determined for sample with positive control inhibitor))*100. […]

CTLL2 cells = assay: CTLL2 viability assay (IL2-dependent); format: cell-based; conditions: ATP content
Protocol: The protocol describes the methods to analyse the activity of compounds on the ability to sustain the IL2-dependent viability of CTLL2
Negative control is a DMSO dilution, positive control at 10 μM. Final DMSO concentration is 0.1%.

T1 sequence (O60674 808-1132): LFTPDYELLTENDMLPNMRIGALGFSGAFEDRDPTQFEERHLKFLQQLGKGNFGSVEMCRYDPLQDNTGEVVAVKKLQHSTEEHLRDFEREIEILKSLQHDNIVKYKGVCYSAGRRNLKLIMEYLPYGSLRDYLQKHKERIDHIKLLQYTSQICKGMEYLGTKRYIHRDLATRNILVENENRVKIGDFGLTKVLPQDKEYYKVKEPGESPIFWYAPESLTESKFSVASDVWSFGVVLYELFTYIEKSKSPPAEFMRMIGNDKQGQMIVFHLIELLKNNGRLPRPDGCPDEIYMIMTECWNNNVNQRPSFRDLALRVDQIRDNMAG

Structure (SMILES): CCc1cc(C2=CCN(C(=O)CC#N)CC2)ccc1N(C)c1cc2c(cn1)ncn2C [Compound 1]
- JAK1 selectivity vs JAK2 (JAK2): 28 fold
- IC50 (JAK2; Ulight-JAK1(tyr1023) peptide, 7.5 μM ATP, individual determinations, read-out: IC50 against JAK2): 61.5 nM and 108 nM and 101 nM and 42.9 nM and 26.4 nM and 155 nM and 35.7 nM and 30.5 nM
- JAK1 selectivity vs TYK2 [1]: 9 fold
- IC50 (CTLL2 cells; 24 h, listed as compound of the invention): 2440 nM
- IC50 (CTLL2 cells; Mus musculus, CTLL-2, 24 h): 1810 nM

— patent publication US20130217722A1, “NOVEL COMPOUND USEFUL FOR THE TREATMENT OF DEGENERATIVE AND INFLAMMATORY DISEASES” (priority 2012, published 2013)
